Assay results: publication PMC8146336, “The Mechanisms of Thiosulfate Toxicity against Saccharomyces cerevisiae” (Antioxidants, 2021)

Biological target: T1, cytochrome c oxidase (Saccharomyces cerevisiae, UniProt P00401+P00410)
T1 construct: gene COX1; native complex IV in whole sulfur-starved yeast cells; not purified; with Cytochrome c oxidase subunit 3; Cytochrome c oxidase subunit 4, mitochondrial; Cytochrome c oxidase subunit 5A, mitochondrial; Cytochrome c oxidase subunit 6, mitochondrial; Cytochrome c oxidase subunit 7, mitochondrial; Cytochrome c oxidase subunit 8, mitochondrial; Cytochrome c oxidase subunit 9, mitochondrial; Cytochrome c oxidase subunit 12, mitochondrial; Cytochrome c oxidase subunit 13, mitochondrial
Assay: oxygen consumption of whole cells with TMPD/ascorbate as electron donor
Type: cell-based
Details: 10 mM thiosulfate, 12.5 mM ascorbate, 1.4 mM TMPD, PBS, sulfur-starved cells OD600 10; CuB binding only proposed

For `O=S(O)(O)=S` [thiosulfate], the “inhibition at 10 mM” value was “In the assay, thiosulfate inhibited cytochrome c oxidase (Figure 5E)”.
